From patent US8178506B2, “Oligomeric compounds and compositions for use in modulation of small non-coding RNAs” (Regulus Therapeutics Inc., priority 2003, dated 2012) come the findings set out here.

In the oligonucleotide strings, read from the 5' end, every base follows the letter of its sugar. An asterisk marks phosphorothioate; unmarked linkages are phosphodiester. Other units and linkages are bracketed, terminal groups are in braces. A string of capitals states the bases alone. e = 2'-O-(2-methoxyethyl) (MOE); [5mC] = 5-methylcytosine

The test system of one data set is leptin. Put plainly: Leptin secretion by adipocytes (ELISA). To be noted: adipocytes, 250 nM oligomeric compound, day nine post-transfection, relative to control (1.0); Table 16. The data set is classed as cell-based, human.
The test system of data set [1] is preadipocytes / differentiating adipocytes. Briefly: Adipocyte differentiation assay, markers taken together. The data set is classed as cell-based, human. The following applies: for expression of the adipocyte differentiation markers, compounds targeting mir-143 miRNA or pri-miRNA compared: preadipocytes (Table 20); for expression levels of markers of adipocyte differentiation (TG, leptin, aP2, HSL, Glut4, PPARγ): preadipocytes, 250 nM, day nine post-transfection, relative to ISIS-29848.

As for “327905 (antisense e[5mC]*eA*eG*eA*e[5mC]*eT*e[5mC]*e[5mC]*eG*eG*eT*eG*eG*eA*eA*eT*eG*eA*eA*eG*eG*eA) [compound 327905]”, the “Leptin (secretion)” value in the data set on leptin turned out to be 1.62. Same read-out and setting: the value for “327922 (antisense eT*e[5mC]*eA*eG*eT*eT*eT*eT*eG*e[5mC]*eA*eT*eG*eG*eA*eT*eT*eT*eG*e[5mC]*eA*e[5mC]*eA) [compound 327922]” was 1.25; that for “327919 (antisense eG*eA*eA*eA*e[5mC]*e[5mC]*e[5mC]*eA*eG*e[5mC]*eA*eG*eA*e[5mC]*eA*eA*eT*eG*eT*eA*eG*e[5mC]*eT) [compound 327919]” was 1.44; that for “327888 (antisense eA*eA*eT*eG*e[5mC]*e[5mC]*e[5mC]*e[5mC]*eT*eA*eA*eA*eA*eA*eT*e[5mC]*e[5mC]*eT*eT*eA*eT) [compound 327888]” was 1.38.

Regarding “TGAGCTACAGTGCTTCATCTCA [ISIS 327901] (chemistry not given here) [uniform 2′-MOE PS; targets mir-143]”, the “expression of all five markers of differentiation, dose response” value in data set [1] (differentiating adipocytes, 50, 100, 200 and 300 nM, 24 hours) was “dose responsive reduction of expression of all five markers of differentiation”. In data set [1], the “expression of the adipocyte differentiation markers, compounds targeting mir-143 miRNA or pri-miRNA compared” value is listed as “more effective” and the “expression levels of markers of adipocyte differentiation (TG, leptin, aP2, HSL, Glut4, PPARγ)” value is reported as “significantly reduce the expression levels of 5 of 6 markers of adipocyte differentiation”. Take “TGAGCTACAGTGCTTCATCTCA [ISIS 340927] (chemistry not given here) [5-10-7 2′-MOE gapmer PS; targets mature mir-143]”: the “expression of the adipocyte differentiation markers, compounds targeting mir-143 miRNA or pri-miRNA compared” value in data set [1] (listed as ISIS 340972) was “reduced expression of the adipocyte differentiation markers”. As for “327889 (antisense eG*eT*eG*eG*eT*eA*eA*eT*e[5mC]*e[5mC]*e[5mC]*eT*eG*eG*e[5mC]*eA*eA*eT*eG*eT*eG*eA*eT) [compound 327889]”, the “Leptin (secretion)” value with leptin came out at 1.05.

On to “327925 (antisense eT*eA*eG*e[5mC]*eT*eG*eG*eT*eT*eG*eA*eA*eG*eG*eG*eG*eA*e[5mC]*e[5mC]*eA*eA) [compound 327925]”, for which the “Leptin (secretion)” value in the data set with leptin came to 1.40. Same read-out and setting: the value for “327931 (antisense eA*eA*e[5mC]*e[5mC]*eA*eT*eA*e[5mC]*eA*eA*e[5mC]*e[5mC]*eT*eA*e[5mC]*eT*eA*e[5mC]*e[5mC]*eT*e[5mC]*eA) [compound 327931]” was 1.12. As to “ACTTTCGGTTATCTAGCTTTA [ISIS 327892] (chemistry not given here) [uniform 2′-MOE PS; targets mir-131-2/mir-9]”, the “expression levels of markers of adipocyte differentiation (TG, leptin, aP2, HSL, Glut4, PPARγ)” value in data set [1] was “significantly reduce the expression levels of 5 of 6 markers of adipocyte differentiation”. “327893 (antisense eA*eA*e[5mC]*e[5mC]*eA*e[5mC]*eA*e[5mC]*eA*eA*e[5mC]*e[5mC]*eT*eA*e[5mC]*eT*eA*e[5mC]*e[5mC]*eT*e[5mC]*eA) [compound 327893]”: the “Leptin (secretion)” value in the data set on leptin worked out at 1.14. For the substance “327901 (antisense eT*eG*eA*eG*e[5mC]*eT*eA*e[5mC]*eA*eG*eT*eG*e[5mC]*eT*eT*e[5mC]*eA*eT*e[5mC]*eT*e[5mC]*eA) [compound 327901]”, the “Leptin (secretion)” value in the data set with leptin turned out to be 1.02.

On to “327890 (antisense eA*eG*e[5mC]*eA*e[5mC]*eA*eA*eA*e[5mC]*eT*eA*e[5mC]*eT*eA*e[5mC]*e[5mC]*eT*e[5mC]*eA) [compound 327890]”, for which the “Leptin (secretion)” value in the data set on leptin came to 1.36.

On to “327967 (antisense eA*e[5mC]*eT*eG*eT*eA*e[5mC]*eA*eA*eA*e[5mC]*eT*eA*e[5mC]*eT*eA*e[5mC]*e[5mC]*eT*e[5mC]*eA) [compound 327967]”, for which the “Leptin (secretion)” value in the data set with leptin turned out to be 1.22.

On to “327903 (antisense eA*eA*e[5mC]*eT*eA*eT*eA*e[5mC]*eA*eA*e[5mC]*e[5mC]*eT*eA*e[5mC]*eT*eA*e[5mC]*e[5mC]*eT*e[5mC]*eA) [compound 327903]”, for which the “Leptin (secretion)” value in the data set with leptin is 1.61. Turning to “327941 (antisense eA*eA*e[5mC]*e[5mC]*e[5mC]*eA*e[5mC]*e[5mC]*eG*eA*e[5mC]*eA*eG*e[5mC]*eA*eA*eT*eG*eA*eA*eT*eG*eT*eT) [compound 327941]”, the “Leptin (secretion)” value with leptin turned out to be 0.54.

On to “327934 (antisense eG*eG*eT*eA*e[5mC]*eA*eA*eT*e[5mC]*eA*eA*e[5mC]*eG*eG*eT*e[5mC]*eG*eA*eT*eG*eG*eT) [compound 327934]”, for which, in the data set on leptin, the “Leptin (secretion)” value is listed as 1.25.
